Assay results from patent US20100240760A1 (priority 2005, published 2010).

Key:
[1] = system: patients with mild-to-moderate essential hypertension; assay: Clinical trial A2201 (Example I): aliskiren vs placebo and irbesartan, 8 weeks; format: in vivo, human; details: for MSDBP responders / MSSBP responders: ITT population at Endpoint, aliskiren 150-600 mg groups, irbesartan 150 mg; for MSDBP responders: responder: MSDBP <90 mm Hg or ≧10 mm Hg reduction from baseline; for MSSBP responders: responder: MSSBP <140 mm Hg or ≧20 mm Hg reduction from baseline; for mean increase in active renin: ITT population
Description: The clinical trial. A multicenter, randomized, double-blind, parallel group clinical trial was designed to explore the efficacy and safety of aliskiren compared to placebo in a population of mild-to-moderate hypertensive patients. The treatment was for eight weeks, i.e., the clinical trial endpoint was at eight weeks for this particular trial. […] The majority of patients were Caucasian and younger than 65 years of age, with a mean age in the mid 50s. The overall distribution of males and females was even. The primary efficacy variable analysed was MSDBP change (reduction in MSDBP from baseline). The secondary efficacy variables analysed were MSSBP change (reduction in MSSBP from baseline), responder ratio, plasma renin activity (PRA) reduction and active plasma renin (AREN) increase from baseline.

[2] = humans; cited from earlier work
hypertensive patients = assay: Clinical trial A2203 (Example II): aliskiren, valsartan and combinations, 6 weeks; format: in vivo, human
[3] = system: patients with mild-to-moderate essential hypertension; assay: Clinical trial A2201 (Example I): aliskiren vs placebo and irbesartan, 8 weeks; format: in vivo, human; details: 75, 150, or 300 mg once daily; mild-to-moderate hypertensive patients
[4] = system: patients with mild-to-moderate essential hypertension; assay: Re-analysis of A2201 by genotype (Example II model, LSMEAN, race as covariate); format: in vivo, human; details: all aliskiren treated groups in A2201
Description: Samples. Patients participating in the clinical trial A2201 (see, EXAMPLE I) and clinical trial A2203 were asked to provide a separate consent for participation in pharmacogenetic analysis. Blood samples from all consenting patients were collected at the individual trial sites and then shipped to Covance (Indianapolis, Ind.). The genomic DNA of each patient was extracted from the blood by Covance using the […]™ DNA Isolation Kit (D-50K) (Gentra, Minneapolis, Minn.) and shipped to NIBR for genotyping. Ultimately, 511 patients from the clinical trial in EXAMPLE I (A2201) were genotyped, with roughly equal ratios of each treatment arm.
The primary efficacy variable was MSDBP change (reduction in MSDBP from baseline at end point). The secondary efficacy variables are MSSBP change (reduction in MSSBP from baseline at end point), responder ratio, plasma renin activity (PRA) reduction and active plasma renin (AREN) increase from baseline.
Genotyping. SNP assays were designed using information from the public dbSNP database and the proprietary Celera/ABI database. The resulting probe sets for the genotyping assay were generated for ABI's Assays-by-Design® platform. Livak K J et al., Nat. Genet. 9: 341-2 (1995). Genotyping was performed on 10 ng of genomic DNA according to the manufacturer's instructions.
Statistical analysis. Genotype-phenotype association studies and related analyses were performed in SAS (Cary, N.C.) using Analyst.
Association tests used categorical genotypes as the independent variable, with no assumption about dominance, and the various efficacy variables as dependent variables. Tests of continuous dependent variables used an ANCOVA analysis, and logistic regression was used for categorical dependent variables. Note that none of the results have been adjusted for multiple hypothesis testing. […] Covariates in the genotype-phenotype association analysis were: (1) dose level of treatment; (2) trial region coded as STU1A in A2201 (see EXAMPLE I) or REGION in A2203; (3) baseline measurement of MSDBP and MSSBP; and (4) race. Analysis was performed in all the samples from the three aliskiren treated arms first.

[5] = system: sodium-depleted marmosets; details: p.o. or i.v.; cited from earlier work
[6] = system: patients with mild-to-moderate essential hypertension; assay: Pharmacogenetic analysis of A2201 (Example I): response by ACE and AGTR2 genotype; format: in vivo, human; details: aliskiren treated groups pooled
[7] = SNP_4769 genotype CT (n 14), listed as Aliskiren
[8] = SNP_4769 genotype TT (n 278), listed as Aliskiren

## CCCCC1=NC2(CCCC2)C(=O)N1Cc1ccc(-c2ccccc2-c2nnn[nH]2)cc1 [irbesartan]
[1]
  MSDBP responders: 56%
  MSSBP responders: 59%
[1]; 150 mg
  mean increase in active renin: 11.2 mu/mL

## COCCCOc1cc(C[C@@H](C[C@H](N)[C@@H](O)C[C@H](C(=O)NCC(C)(C)C(N)=O)C(C)C)C(C)C)ccc1OC [aliskiren, Aliskiren]
[2]
  Cmax and AUC dependence on dose: increase with dose, but in a non-linear fashion
  bioavailability: approximately 2.7%
  half-life: approximately 25 hours
  time to peak plasma levels after administration: 3 to 5 h
Hypertensive patients; aliskiren 300 mg group, 6 weeks
  change from baseline in MSDBP, aliskiren monotherapy vs. placebo: statistically significant
Hypertensive patients; preliminary clinical study results summary, placebo response 8.6 mmHg
  dose-response and magnitude of placebo-subtracted effects: lower than expected
[1]
  MSDBP responders: 59-67%
  MSSBP responders: 57-68%
[1]; 150 mg
  mean increase in active renin: 20.8 mu/mL
[1]; 300 mg
  mean increase in active renin: 29.9 mu/mL
[1]; 600 mg
  mean increase in active renin: 93.6 mu/mL
[1]; aliskiren 300 and 600 mg
  MSDBP reduction, comparison across treatment groups: greatest reductions
  MSSBP reduction, comparison across treatment groups: greatest reductions
[1]; aliskiren 300 and 600 mg, at Endpoint
  MSSBP reduction, comparison with placebo and irbesartan: statistically superior to placebo and irbesartan
[3]
  daytime ambulatory systolic blood pressure (DASBP): statistically significant reduction
[4]; SNP_1445 genotype AA (n 106)
  LSMEAN of MSDBP reduction: −11.0 mmHg
  LSMEAN of MSSBP reduction: −11.2 mmHg
  Responder rate: 75%
[4]; SNP_1445 genotype AG (n 69)
  LSMEAN of MSDBP reduction: −13.3 mmHg
  LSMEAN of MSSBP reduction: −13.8 mmHg
  Responder rate: 71%
[4]; SNP_1445 genotype GG (n 118)
  LSMEAN of MSDBP reduction: −9.4 mmHg
  LSMEAN of MSSBP reduction: −9.8 mmHg
  Responder rate: 58%
[4]; SNP_4769 genotype CT (n 14)
  Responder rate: 14%
[4]; SNP_4795 genotype AA (n 115)
  LSMEAN of MSDBP reduction: −9.2 mmHg
  LSMEAN of MSSBP reduction: −9.5 mmHg
  Responder rate: 57%
[4]; SNP_4795 genotype GA (n 72)
  LSMEAN of MSDBP reduction: −13.4 mmHg
  LSMEAN of MSSBP reduction: −14.2 mmHg
  Responder rate: 74%
[4]; SNP_4795 genotype GG (n 106)
  LSMEAN of MSDBP reduction: −10.8 mmHg
  LSMEAN of MSSBP reduction: −10.8 mmHg
  Responder rate: 75%
[5]
  inhibition of plasma renin activity (PRA): complete inhibition
  mean arterial pressure (MAP): sustained reductions
  plasma concentrations of active and total renin: significant increases
[6]; SNP_1445 genotype AA (n 106)
  MSDBP reduction: −11.2 mmHg
  MSSBP reduction: −13.9 mm Hg
[6]; SNP_1445 genotype AG (n 69)
  MSDBP reduction: −13.2 mmHg
  MSSBP reduction: −15.7 mm Hg
[6]; SNP_1445 genotype GG (n 118)
  MSDBP reduction: −9.3 mmHg
  MSSBP reduction: −11.8 mm Hg
[6]; SNP_4769 genotype CT (n 14)
  MSDBP reduction: 4.7 mmHg
  MSSBP reduction: 6.2 mm Hg
[6]; [7]
  MSDBP reduction: −4.7 mmHg
  MSSBP reduction: −6.2 mm Hg
[6]; SNP_4769 genotype TT (n 278)
  MSDBP reduction: 11.1 mmHg
  MSSBP reduction: 13.7 mm Hg
[6]; [8]
  MSDBP reduction: −11.1 mmHg
  MSSBP reduction: −13.7 mm Hg
[6]; SNP_4795 genotype AA (n 115)
  MSDBP reduction: −9.0 mmHg
  MSSBP reduction: −11.5 mm Hg
[6]; SNP_4795 genotype GA (n 72)
  MSDBP reduction: −13.3 mmHg
  MSSBP reduction: −16.3 mm Hg
[6]; SNP_4795 genotype GG (n 106)
  MSDBP reduction: −11.1 mmHg
  MSSBP reduction: −13.6 mm Hg
